Source: ChEMBL document CHEMBL1146745, “Studies on anti-Helicobacter pylori agents. Part 3: A novel, efficacious cephem derivative, FR193879” (Bioorg Med Chem Lett, 2004)

Legend:
[1] = molecular target: Beta-lactamase TEM (Escherichia coli) (UniProt P62593); assay: Stability towards penicillinase was determined
[2] = molecular target: Beta-lactamase TEM (Escherichia coli) (UniProt P62593); assay: Relative stability towards penicillinase was determined
[3] = molecular target: Beta-lactamase TEM (Escherichia coli) (UniProt P62593); assay: Stability towards beta-lactamase was determined in penicillinase

## NC(=O)Cc1csc(SC2=C(C(=O)O)N3C(=O)[C@@H](NC(=O)Cc4ccccc4)[C@H]3SC2)n1
[1]
  Km: 34.8 µg/mL
[2]
  Ratio: 9.38
[3]
  Vmax: 1.18
